# Experimental data as given in US11325884B2, “Ketone inhibitors of lysine gingipain” (CORTEXYME, INC., priority 2016, dated 2022).
# Columns and labels:
# [1] = Oral pharmacokinetics in CD-1 mice; format: in vivo; conditions: male CD-1 mice, p.o. 10 mg/kg; for oral availability / plasma concentrations: as compared to reference compound 73
# lysine gingipain (Kgp) = lysine gingipain (Kgp) (Porphyromonas gingivalis (strain ATCC 33277 / DSM 20709 / CIP 103683 / JCM 12257 / NCTC 11834 / 2561), UniProt B2RLK2); test: Inhibition of lysine gingipain, fluorogenic assay (Z-His-Glu-Lys-MCA); format: biochemical; conditions: as compared to reference compound 73
# Procedure: The specific assay conditions were as follows. Buffer: pH=7.5, 100 mM Tris-HCl, 75 mM NaCl, 2.5 mM CaCl2, 10 mM cysteine, 1% DMSO after all additions. Protein: 0.1 nM Kgp, isolated from culture of Porphyromonas gingivalis, as described by Pike et al. (J. Biol. Chem. 1994, 269(1), 406), and Potempa and Nguyen (Current Protocols in Protein Science. 2007, 21.20.1-21.20.27). Fluorogenic substrate: 10 μM Z-His-Glu-Lys-MCA. Time=90 minutes. Temperature=37° C.
# Further assays to measure the inhibitory activity of compounds of the present invention against Kgp and cathepsins B, H, K, L, and S were conducted as described in Example 66. The capacities of the compounds to inhibit the activity of cathepsins F, V, and Z were also measured.
# [2] = in vivo, po; cited from earlier work
# Kgp = Kgp (Porphyromonas gingivalis (Bacteroides gingivalis), UniProt Q51817); test: Activity probe labeling of Kgp in P. gingivalis-infected Jurkat cells; format: cell-based
# Excerpt: The identity of this labeled protein in P. gingivalis-infected cells was confirmed to be Kgp by Western blot.
SMILES,concentrations in the brain and cerebrospinal fluid (CSF) [1],oral availability [1],plasma concentrations [1],selectivity for Kgp over endogenous cathepsins (lysine gingipain (Kgp)),further results
"COC(C)(C)C(=O)N[C@@H](CCCCN)C(=O)COC(C(F)(F)F)C(F)(F)F [Compound 69, (S)—N-(7-amino-1-((1,1,1,3,3,3-hexafluoropropan-2-yl)oxy)-2-oxoheptan-3-yl)-2-methoxy-2-methylpropanamide]",increased,improved,increased,far more selective,
"COC(C)(C)C(=O)N[C@@H](CCCCN)C(=O)COc1c(F)ccc(F)c1F [Compound 47, (S)—N-(7-amino-2-oxo-1-(2,3,6-trifluorophenoxy)heptan-3-yl)-2-methoxy-2-methylpropanamide]",increased,improved,increased,far more selective,
CN(NC(=O)CC[C@H](NC(=O)OCc1ccccc1)C(=O)N[C@@H](CCCCN)C(=O)C(=O)NCc1ccccc1)c1ccccc1 [Kyt-36],,,,,half-life [2]: increases
CC1=CC(C)=[N+]2C1=Cc1ccc(CCC(=O)NCc3cn(-c4cccc(C(=O)NC(CCCCN)C(=O)COc5c(F)cccc5F)c4)nn3)n1[B-]2(F)F (stereo not shown) [Compound 15a],,,,,binding to purified Kgp and to Kgp in infected cells (Kgp; FIG. 6A): irreversibly binds
"COC(C)(C)C(=O)N[C@@H](CCCCN)C(=O)COc1c(F)cccc1F [Compound 48, (S)—N-(7-amino-1-(2,6-difluorophenoxy)-2-oxoheptan-3-yl)-2-methoxy-2-methylpropanamide]",,improved,increased,,
C[N+]1=C(/C=C/C=C/C=C2\N(CCCCCC(=O)NCc3cn(-c4cccc(C(=O)N[C@@H](CCCCN)C(=O)COc5c(F)cccc5F)c4)nn3)c3ccc(S(=O)(=O)O)cc3C2(C)C)C(C)(C)c2cc(S(=O)(=O)O)ccc21 [Compound 70],,,,,"effect of preincubation on binding of probe 15a to Kgp (Kgp; infected Jurkat cells, preincubation 1 hour): blocked the binding"
